Square brackets hold non-standard residues; d marks the D form. Ends that are not written are not given here. Cit = NC(=O)NCCC[C@H](N)C(=O)O
How the values were obtained:
PBMCs [1] = assay: CFSE proliferation assay on PBMCs; type: cell-based, human; conditions: Donor 4, day 10
Protocol: PBMC were isolated from freshly drawn heparinised blood by Ficol-Hypaque (Sigma) gradient centrifugation. PBMC (1.5×10^6 cells/well) were stimulated with single peptides (final concentration 10 μg/ml) in RPMI containing 5% pooled autologous human serum, 2 mM glutamine, 20 mM HEPES and Penicillin-streptomycin (1%) in a final volume of 2 ml. As a negative control PBMC were incubated with medium alone. The PBMC were cultured at 37° C. in an atmosphere of 5% CO2 for 7 and 10 days. To assess proliferation at these times points cells were sampled and stained with surface marker CD4 and CD8 antibodies labelled with PE-Cy5 and efluor 450 respectively. After staining cells were fixed and analysed on a Milteny MACSQuant flow cytometer.

B16DP4 tumour = assay: B16DP4 melanoma tumour challenge; type: in vivo, DP4 transgenic mice; conditions: peptide immunisation after B16DP4 implant; unimmunized 10%
Protocol: (§1) C57BL/6 mice (Charles River, UK), HLA-DR4 mice (Taconic, USA), HHDII/DR1 mice (Pasteur institute, France) and the HHD/HLA-DP4 transgenic strain of mouse as described in patent WO2013/017545 A1 (EMMA repository, France) were used, aged between 8 and 12 weeks, and cared for by the staff at Nottingham Trent University. All work was carried out under a Home Office project licence. Peptides were dissolved in PBS to 1 mg/ml and then emulsified (a series of dilutions) with different adjuvants: CpG and MPLA 6 μg/mouse of each (Invivogen, UK), Incomplete Freund's 50 μl/mouse (Sigma, UK), poly I:C 10 μg/mouse (Invivogen, UK), Imiquimod 25 μg/mouse (Invivogen, UK) and GMCSF 10 μg/mouse (Peprotech, UK). Peptides (25 μg/mouse) were injected subcutaneously at the base of the tail. DNA (1 μg/mouse) was coated onto 1.0 μm gold particles (BioRad, Hemel Hempstead, UK) using the manufacturer's instructions and administered intradermally by genegun (BioRad). […]
For tumour challenge experiments mice were challenged with 2.5×10^4 B16 DR4 cells or 1×10^6 LLC2/LLC2 DR4 cells, 2.5×10^5 Pan02 DR4 cells in matrigel or 4×10^5 B16 HHDII DP4 cells subcutaneously on the right flank 3 days prior to primary immunisation and then were immunised as above. Tumour growth was monitored at 3-4 days intervals and mice were humanely euthanized once tumour reached ≥10 mm in diameter.

splenocytes = assay: Screening of citrullinated Enolase peptide pools, ex vivo IFNγ Elispot, DR4 mice; type: in vivo, transgenic DR4 mouse; conditions: single immunisation with pool of 4-6 human citrullinated peptides, 20 μg each, CpG/MPLA, day 14, label = peptide used for restimulation
Protocol: as §1, with “UK).” for “UK). Peptides (25 μg/mouse) were injected subcutaneously at the base of the tail. DNA (1 μg/mouse) was coated onto 1.0 μm gold particles (BioRad, Hemel Hempstead, UK) using the manufacturer's instructions and administered intradermally by genegun (BioRad).”
Elispot assays were performed using murine IFNγ, IL-17 and IL-10 capture and detection reagents according to the manufacturer's instructions (Mabtech, Sweden). […] After incubation, captured IFN and IL-10 were detected by biotinylated anti-IFNγ and IL-10 antibodies and developed with a streptavidin alkaline phosphatase and chromogenic substrate. Spots were analysed and counted using an automated plate reader (Cellular Technologies Ltd).
Screening was performed to identify potential citrullinated Enolase epitopes in mice. […] After 14 days the mice were culled and the immune responses to each peptide within the immunising pool were assessed by ex vivo Elispot (FIG. 2). […]

PBMCs [2] = assay: PBMC culture and IFNγ Elispot; type: cell-based, human; conditions: donors 1 and 4, PBMCs cultured 13 days; label = restimulating peptide
Protocol: PBMC were isolated from freshly drawn heparinised blood by Ficol-Hypaque (Sigma) gradient centrifugation. PBMC (1.5×10^6 cells/well) were stimulated with single peptides (final concentration 10 μg/ml) in RPMI containing 5% pooled autologous human serum, 2 mM glutamine, 20 mM HEPES, Penicillin-streptomycin (1%), 10 ng/ml recombinant human IL-15 and 5 ng/ml recombinant human IL-7 in a final volume of 2 ml. Recombinant human IL-2 was added on day 3 at 20 IU/ml. On day 13 cells were washed and added to human IFN elispot assay. Elispot assays were performed using human IFNγ capture and detection reagents according to the manufacturer's instructions (Mabtech, Sweden). In brief, anti-IFNγ antibody was coated onto wells of 96-well Immobilin-P plate. Synthetic peptides (at 10 μg/ml) and 1×10^5 per well PBMCs were added to the wells of the plate in quadruplicate and plates incubated for 20 hrs at 37° C. After incubation, captured IFNγ was detected by biotinylated anti-IFN antibody and developed with a streptavidin alkaline phosphatase and chromogenic substrate. Spots were analysed and counted using an automated plate reader (Cellular Technologies Ltd).

PBMCs [3] = assay: Intracellular cytokine staining of PBMCs; type: cell-based, human; conditions: donor 4, cultured 13 days in Enolase 241cit, restimulated; label = restimulating peptide
Protocol: PBMC cultures were set up as detailed above. On day 14 PBMCs were washed and cultured with synthetic peptide (10 μg/ml) in the presence of brefeldin A for 20 hrs at 37° C. Cells were stained with cell surface markers CD4 and CD8 using PE-Cy5 and efluor450 labelled antibodies respectively. Cells were subsequently fixed and permeabilised and stained with IFNγ PE-Cy7 labelled antibody. After staining cells were fixed and analysed on Miltenyi MACSQuant flow cytometer.

Question: How did the “lymphocytes that are CFSE^lowCD4^+” value (PBMCs [1]) turn out when “VIGMDVAASEFF-CIT-SGKYDLD (VIGMDVAASEFF[Cit]SGKYDLD; listed as Homo sapiens) [Enolase 241cit]” was run?
Answer: 15%

Question: And the “survival rate after 60 days” value (B16DP4 tumour)?
Answer: 70%

Question: And the “IFNγ response to peptide compared to media” value (splenocytes)?
Answer: significant response

Question: What about the “IFNγ response on restimulation” value (PBMCs [2]) of the same substance?
Answer: show responses

Question: What about the “IFNγ positive CD4 cells” value (PBMCs [3]) of the same substance?
Answer: 0.44%
